Assay [1] concerns the target T1, Peroxisomal acyl-coenzyme A oxidase 3 (Homo sapiens, UniProt O15254).
T1 sequence (O15254 whole entry): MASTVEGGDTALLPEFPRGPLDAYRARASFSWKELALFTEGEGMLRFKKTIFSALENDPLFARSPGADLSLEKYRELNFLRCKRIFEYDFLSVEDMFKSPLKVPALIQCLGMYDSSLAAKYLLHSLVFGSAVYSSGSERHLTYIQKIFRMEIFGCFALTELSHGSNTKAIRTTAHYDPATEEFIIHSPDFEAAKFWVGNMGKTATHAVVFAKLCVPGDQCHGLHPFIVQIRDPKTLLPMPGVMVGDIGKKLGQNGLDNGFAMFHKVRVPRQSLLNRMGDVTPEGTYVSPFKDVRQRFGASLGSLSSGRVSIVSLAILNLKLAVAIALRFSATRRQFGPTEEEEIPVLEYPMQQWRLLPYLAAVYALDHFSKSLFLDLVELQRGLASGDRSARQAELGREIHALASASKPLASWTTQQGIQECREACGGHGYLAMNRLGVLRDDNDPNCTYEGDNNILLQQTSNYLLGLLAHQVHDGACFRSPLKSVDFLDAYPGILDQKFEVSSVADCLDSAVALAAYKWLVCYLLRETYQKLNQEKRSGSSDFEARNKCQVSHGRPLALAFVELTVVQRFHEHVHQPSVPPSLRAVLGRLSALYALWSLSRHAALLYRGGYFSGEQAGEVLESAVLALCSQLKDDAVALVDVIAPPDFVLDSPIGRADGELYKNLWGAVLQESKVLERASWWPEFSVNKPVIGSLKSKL

Assay [2] deals with Serine/threonine-protein kinase B-raf (Homo sapiens, UniProt P15056).
Chain of Serine/threonine-protein kinase B-raf (P15056 whole entry): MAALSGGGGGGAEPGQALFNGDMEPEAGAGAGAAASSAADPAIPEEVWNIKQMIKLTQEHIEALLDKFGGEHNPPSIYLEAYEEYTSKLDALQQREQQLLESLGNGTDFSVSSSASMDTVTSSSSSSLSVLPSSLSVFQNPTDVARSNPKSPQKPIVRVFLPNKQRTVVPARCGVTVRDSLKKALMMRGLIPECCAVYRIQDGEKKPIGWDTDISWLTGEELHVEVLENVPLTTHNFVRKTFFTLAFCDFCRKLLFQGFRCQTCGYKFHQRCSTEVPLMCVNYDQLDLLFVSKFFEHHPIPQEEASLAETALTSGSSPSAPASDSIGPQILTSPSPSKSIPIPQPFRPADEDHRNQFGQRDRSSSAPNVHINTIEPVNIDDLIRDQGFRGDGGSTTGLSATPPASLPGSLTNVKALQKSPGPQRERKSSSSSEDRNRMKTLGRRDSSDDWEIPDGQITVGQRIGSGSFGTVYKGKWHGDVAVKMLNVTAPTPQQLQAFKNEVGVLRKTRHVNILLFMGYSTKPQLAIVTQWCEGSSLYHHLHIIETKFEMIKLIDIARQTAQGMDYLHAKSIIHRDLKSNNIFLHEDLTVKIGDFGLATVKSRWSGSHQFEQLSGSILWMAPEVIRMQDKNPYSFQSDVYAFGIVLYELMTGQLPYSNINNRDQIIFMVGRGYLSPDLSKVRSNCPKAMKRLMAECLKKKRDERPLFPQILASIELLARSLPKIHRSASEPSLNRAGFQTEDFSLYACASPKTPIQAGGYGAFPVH
The target of assay [3] is Serine/threonine-protein kinase MRCK alpha (Homo sapiens, UniProt Q5VT25).
Chain of Serine/threonine-protein kinase MRCK alpha (Q5VT25 whole entry): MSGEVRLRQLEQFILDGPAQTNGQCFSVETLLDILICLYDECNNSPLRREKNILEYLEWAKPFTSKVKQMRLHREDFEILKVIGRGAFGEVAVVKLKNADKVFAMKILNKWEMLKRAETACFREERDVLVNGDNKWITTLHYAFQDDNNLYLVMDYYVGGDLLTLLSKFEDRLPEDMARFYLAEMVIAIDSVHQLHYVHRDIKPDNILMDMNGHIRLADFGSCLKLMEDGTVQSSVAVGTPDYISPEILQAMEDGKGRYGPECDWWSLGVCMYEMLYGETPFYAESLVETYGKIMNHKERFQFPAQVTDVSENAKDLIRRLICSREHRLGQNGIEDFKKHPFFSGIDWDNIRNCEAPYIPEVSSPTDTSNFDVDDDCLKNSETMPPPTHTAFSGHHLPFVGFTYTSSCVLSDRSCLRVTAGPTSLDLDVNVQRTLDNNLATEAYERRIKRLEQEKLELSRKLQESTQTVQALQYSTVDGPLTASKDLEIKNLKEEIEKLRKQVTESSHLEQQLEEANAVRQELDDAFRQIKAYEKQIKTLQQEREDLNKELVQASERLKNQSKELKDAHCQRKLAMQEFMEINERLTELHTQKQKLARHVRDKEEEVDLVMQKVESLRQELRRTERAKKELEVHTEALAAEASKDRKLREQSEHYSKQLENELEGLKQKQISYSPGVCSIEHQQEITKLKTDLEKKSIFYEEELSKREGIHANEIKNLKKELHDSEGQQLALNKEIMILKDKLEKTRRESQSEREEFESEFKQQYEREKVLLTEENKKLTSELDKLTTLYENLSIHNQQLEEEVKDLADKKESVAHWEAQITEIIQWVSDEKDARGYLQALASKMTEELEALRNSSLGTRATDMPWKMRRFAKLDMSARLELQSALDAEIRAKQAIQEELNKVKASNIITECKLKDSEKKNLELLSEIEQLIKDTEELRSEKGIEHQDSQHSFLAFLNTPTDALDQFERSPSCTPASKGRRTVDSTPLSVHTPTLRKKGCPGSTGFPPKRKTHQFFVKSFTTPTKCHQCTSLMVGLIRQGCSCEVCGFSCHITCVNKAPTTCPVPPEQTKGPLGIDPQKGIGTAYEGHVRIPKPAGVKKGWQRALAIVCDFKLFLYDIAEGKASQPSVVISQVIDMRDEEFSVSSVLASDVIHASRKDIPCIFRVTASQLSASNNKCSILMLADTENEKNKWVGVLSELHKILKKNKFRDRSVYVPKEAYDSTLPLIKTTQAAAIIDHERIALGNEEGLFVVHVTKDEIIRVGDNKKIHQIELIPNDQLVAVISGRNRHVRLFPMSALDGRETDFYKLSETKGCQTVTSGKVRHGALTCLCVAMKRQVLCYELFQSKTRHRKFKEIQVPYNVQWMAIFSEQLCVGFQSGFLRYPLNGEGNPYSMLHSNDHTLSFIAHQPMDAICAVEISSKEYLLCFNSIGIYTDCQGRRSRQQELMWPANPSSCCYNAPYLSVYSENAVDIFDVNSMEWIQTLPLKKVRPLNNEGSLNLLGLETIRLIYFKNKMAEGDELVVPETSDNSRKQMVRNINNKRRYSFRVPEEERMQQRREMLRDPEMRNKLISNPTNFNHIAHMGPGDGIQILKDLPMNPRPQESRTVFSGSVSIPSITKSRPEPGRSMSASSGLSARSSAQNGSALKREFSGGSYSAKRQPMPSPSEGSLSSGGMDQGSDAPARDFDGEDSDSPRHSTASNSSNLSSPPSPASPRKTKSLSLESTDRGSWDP
Assay [4] deals with Tyrosine-protein kinase Fer (Homo sapiens, UniProt P16591).
Chain of Tyrosine-protein kinase Fer (P16591 whole entry): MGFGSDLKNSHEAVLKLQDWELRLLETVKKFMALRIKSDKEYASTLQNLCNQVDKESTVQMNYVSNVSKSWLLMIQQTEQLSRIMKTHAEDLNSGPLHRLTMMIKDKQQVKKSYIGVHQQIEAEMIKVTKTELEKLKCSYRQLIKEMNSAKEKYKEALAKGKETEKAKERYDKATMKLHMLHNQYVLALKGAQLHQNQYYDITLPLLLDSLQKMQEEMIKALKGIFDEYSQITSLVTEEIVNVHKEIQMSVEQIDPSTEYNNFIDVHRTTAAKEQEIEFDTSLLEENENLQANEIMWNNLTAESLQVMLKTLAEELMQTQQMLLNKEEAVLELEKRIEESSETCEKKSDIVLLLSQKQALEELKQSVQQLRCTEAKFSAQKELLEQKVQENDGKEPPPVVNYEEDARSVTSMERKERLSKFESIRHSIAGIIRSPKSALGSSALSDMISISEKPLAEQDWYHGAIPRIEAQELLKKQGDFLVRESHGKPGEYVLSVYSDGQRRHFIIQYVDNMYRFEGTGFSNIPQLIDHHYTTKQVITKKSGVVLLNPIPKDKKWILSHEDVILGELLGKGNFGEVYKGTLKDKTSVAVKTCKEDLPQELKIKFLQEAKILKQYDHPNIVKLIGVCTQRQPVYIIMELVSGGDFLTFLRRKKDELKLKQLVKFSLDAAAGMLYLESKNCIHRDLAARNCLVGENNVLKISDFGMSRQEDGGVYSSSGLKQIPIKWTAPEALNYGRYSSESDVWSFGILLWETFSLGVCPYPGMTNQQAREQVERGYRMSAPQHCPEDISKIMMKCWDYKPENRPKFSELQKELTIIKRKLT
In assay [5] the target is T2, Serine/threonine-protein kinase Nek9 (Homo sapiens, UniProt Q8TD19).
T2 sequence (Q8TD19 whole entry): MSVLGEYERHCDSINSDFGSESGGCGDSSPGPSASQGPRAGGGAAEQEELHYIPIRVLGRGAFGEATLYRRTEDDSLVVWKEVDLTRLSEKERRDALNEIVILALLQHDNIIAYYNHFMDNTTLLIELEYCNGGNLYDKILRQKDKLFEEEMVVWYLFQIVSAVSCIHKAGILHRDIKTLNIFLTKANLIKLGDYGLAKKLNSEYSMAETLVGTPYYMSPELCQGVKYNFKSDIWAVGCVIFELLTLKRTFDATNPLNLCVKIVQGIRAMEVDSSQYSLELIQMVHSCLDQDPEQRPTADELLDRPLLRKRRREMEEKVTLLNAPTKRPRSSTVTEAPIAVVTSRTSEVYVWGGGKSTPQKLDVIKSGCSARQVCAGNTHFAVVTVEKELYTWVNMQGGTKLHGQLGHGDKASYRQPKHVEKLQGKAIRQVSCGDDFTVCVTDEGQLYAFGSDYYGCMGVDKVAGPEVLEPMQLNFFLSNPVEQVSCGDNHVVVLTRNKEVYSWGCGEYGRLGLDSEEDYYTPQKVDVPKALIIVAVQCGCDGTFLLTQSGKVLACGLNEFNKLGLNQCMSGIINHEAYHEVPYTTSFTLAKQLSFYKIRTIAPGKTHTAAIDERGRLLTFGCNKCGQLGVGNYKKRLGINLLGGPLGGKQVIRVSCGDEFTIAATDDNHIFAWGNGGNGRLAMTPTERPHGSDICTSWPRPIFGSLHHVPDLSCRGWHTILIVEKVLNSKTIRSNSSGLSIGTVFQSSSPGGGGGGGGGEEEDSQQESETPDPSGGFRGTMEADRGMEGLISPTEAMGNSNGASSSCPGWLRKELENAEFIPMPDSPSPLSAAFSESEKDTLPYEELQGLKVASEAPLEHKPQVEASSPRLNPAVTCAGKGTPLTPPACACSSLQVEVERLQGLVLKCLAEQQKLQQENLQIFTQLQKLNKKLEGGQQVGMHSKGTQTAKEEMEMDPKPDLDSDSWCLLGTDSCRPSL

For assay [6], the target named is cAMP-dependent protein kinase catalytic subunit gamma (Homo sapiens, UniProt P22612).
Chain of cAMP-dependent protein kinase catalytic subunit gamma (P22612 whole entry): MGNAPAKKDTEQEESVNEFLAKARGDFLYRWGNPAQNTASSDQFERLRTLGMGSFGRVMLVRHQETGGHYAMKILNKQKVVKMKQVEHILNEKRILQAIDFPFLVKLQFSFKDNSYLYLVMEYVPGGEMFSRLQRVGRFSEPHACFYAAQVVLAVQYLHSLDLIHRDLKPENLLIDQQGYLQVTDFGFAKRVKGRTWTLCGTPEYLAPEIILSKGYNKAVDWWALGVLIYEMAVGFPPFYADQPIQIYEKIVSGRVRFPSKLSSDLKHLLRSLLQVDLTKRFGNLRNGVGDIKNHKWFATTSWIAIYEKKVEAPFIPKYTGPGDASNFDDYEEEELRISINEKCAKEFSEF
Assay [7] concerns the target Protein kinase C beta type (Homo sapiens, UniProt P05771).
Assay [8] deals with Receptor-interacting serine/threonine-protein kinase 3 (Homo sapiens, UniProt Q9Y572).
Chain of Receptor-interacting serine/threonine-protein kinase 3 (Q9Y572 whole entry): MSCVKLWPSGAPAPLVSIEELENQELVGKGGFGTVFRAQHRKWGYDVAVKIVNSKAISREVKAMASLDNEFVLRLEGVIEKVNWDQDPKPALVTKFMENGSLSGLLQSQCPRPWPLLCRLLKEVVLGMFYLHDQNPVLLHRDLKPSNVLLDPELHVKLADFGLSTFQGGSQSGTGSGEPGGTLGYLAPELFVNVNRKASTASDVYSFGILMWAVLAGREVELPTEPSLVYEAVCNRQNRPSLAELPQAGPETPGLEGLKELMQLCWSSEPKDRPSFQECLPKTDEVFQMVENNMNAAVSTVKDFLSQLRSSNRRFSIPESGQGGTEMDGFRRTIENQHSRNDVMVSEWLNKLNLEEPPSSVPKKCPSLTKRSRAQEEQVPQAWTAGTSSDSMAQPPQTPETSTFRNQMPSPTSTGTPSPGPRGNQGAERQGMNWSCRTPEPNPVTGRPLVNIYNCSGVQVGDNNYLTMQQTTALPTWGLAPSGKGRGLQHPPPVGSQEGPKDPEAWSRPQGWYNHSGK
Assay [9] addresses Serine/threonine-protein kinase 10 (Homo sapiens, UniProt O94804).
Assay [10] addresses T3, TGF-beta receptor type-1 (Homo sapiens, UniProt P36897).
T3 sequence (P36897 whole entry): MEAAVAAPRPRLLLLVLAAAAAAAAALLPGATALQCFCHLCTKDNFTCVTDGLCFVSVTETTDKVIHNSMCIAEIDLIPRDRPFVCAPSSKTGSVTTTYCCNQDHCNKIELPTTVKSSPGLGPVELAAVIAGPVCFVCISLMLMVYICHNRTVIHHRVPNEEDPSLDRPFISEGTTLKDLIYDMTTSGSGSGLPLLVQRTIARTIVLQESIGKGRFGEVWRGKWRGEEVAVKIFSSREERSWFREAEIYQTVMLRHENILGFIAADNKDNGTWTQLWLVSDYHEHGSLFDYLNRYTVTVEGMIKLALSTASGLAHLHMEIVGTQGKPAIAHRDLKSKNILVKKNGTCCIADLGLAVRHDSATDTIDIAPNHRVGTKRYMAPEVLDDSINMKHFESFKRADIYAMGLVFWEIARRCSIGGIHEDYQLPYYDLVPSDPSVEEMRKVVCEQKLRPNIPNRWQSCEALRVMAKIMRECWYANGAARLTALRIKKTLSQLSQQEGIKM

Assay [11] concerns the target Mitogen-activated protein kinase kinase kinase 20 (Homo sapiens, UniProt Q9NYL2).

Active and inactive are the calls of the source. Cut-off read from the data, not from the text of the source, for most assays here: actives have a measured Kd and inactives only a lower limit. Where only a bound is given, the exact number is not on record here.

This note sets out measurements from ChEMBL document CHEMBL3991601, “The target landscape of clinical kinase drugs” (Science, 2017).
Note: in the data inactive means no Kd found up to 30 µM.

Chain of Mitogen-activated protein kinase kinase kinase 20 (Q9NYL2 whole entry): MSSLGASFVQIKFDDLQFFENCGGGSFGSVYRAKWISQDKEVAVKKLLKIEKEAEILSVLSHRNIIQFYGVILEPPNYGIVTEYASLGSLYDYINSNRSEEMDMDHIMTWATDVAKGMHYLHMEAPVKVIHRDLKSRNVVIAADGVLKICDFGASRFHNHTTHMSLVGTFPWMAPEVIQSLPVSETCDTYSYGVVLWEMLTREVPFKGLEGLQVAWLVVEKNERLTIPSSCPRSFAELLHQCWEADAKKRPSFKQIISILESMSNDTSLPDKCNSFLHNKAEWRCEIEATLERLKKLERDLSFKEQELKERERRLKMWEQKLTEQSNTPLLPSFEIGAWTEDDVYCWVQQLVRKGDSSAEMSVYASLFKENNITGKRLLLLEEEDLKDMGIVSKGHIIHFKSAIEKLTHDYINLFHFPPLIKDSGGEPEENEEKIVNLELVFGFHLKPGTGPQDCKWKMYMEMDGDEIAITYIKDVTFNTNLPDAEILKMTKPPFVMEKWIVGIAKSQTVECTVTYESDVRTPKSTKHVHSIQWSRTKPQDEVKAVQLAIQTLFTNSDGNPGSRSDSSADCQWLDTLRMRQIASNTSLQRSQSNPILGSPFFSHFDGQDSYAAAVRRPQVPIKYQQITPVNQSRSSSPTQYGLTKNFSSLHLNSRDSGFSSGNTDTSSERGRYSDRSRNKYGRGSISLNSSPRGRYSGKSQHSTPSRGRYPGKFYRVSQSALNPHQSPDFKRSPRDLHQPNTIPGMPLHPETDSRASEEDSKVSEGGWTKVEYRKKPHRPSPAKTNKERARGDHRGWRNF

The Kd is the free concentration of one partner at which half of the binding sites on the other are occupied at equilibrium, for simple one-to-one binding. Turning to `C=CCn1c(=O)c2cnc(Nc3ccc(N4CCN(C)CC4)cc3)nc2n1-c1cccc(C(C)(C)O)n1` [ADAVOSERTIB], the Kd in [1], in assay [2], in assay [3], in [4], in [5] and in assay [6] was > 30 µM (inactive) in each case. Also, the Kd in [7], in assay [8], in assay [9], in assay [10] and in assay [11] was > 30 µM (inactive) each time.
For the molecule `O[C@H]1CC[C@H](Nc2ncc3nc(Nc4c(F)cc(F)cc4F)n([C@H]4CCOC4)c3n2)CC1` [TANZISERTIB], the Kd in assay [1], in [2], in assay [3], in assay [4], in assay [5] and in assay [6] was > 30 µM (inactive) in each case. For the same molecule, the Kd in [7], in assay [8], in assay [9], in assay [10] and in [11] was > 30 µM (inactive) in each case.
On to `CC1(C)CNc2cc(NC(=O)c3cccnc3NCc3ccncc3)ccc21` [MOTESANIB], for which the figures for the Kd in assay [1], in assay [7] and in assay [8] were > 30 µM (inactive), > 30 µM (inactive) and 1.04 µM (active), respectively.
As for `COc1cc2c(N3CCN(C(=O)Nc4ccc(OC(C)C)cc4)CC3)ncnc2cc1OCCCN1CCCCC1` [TANDUTINIB], the Kd in [1], in [6], in assay [7] and in [8] was > 30 µM (inactive) in each case.
Consider `O=S(=O)(c1cccc2cnccc12)N1CCCNCC1` [FASUDIL], for which the Kd in assay [1], in assay [2], in [4], in assay [5], in assay [7] and in assay [8] was > 30 µM (inactive) in each case. In addition, the Kd in [9], in assay [10] and in assay [11] was > 30 µM (inactive) in each case.
For `NC(=O)c1ccc(N(C(N)=O)c2c(F)cccc2F)nc1-c1ccc(F)cc1F` [VX-702], the Kd in [1], in [2], in assay [3], in assay [4], in assay [5] and in assay [6] was > 30 µM (inactive) in each case. For the same molecule, the Kd in assay [7], in assay [8], in assay [9], in [10] and in assay [11] was > 30 µM (inactive) each time.
For `CCN(CCCOc1ccc2c(Nc3cc(CC(=O)Nc4cccc(F)c4)n[nH]3)ncnc2c1)CCOP(=O)(O)O` [BARASERTIB], the Kd in [1], in assay [2], in assay [3], in assay [4], in assay [5] and in assay [6] was > 30 µM (inactive) each time. In addition, the Kd in [7], in assay [8], in assay [9], in assay [10] and in [11] was > 30 µM (inactive) each time.
Take `N#CCNC(=O)c1ccc(-c2ccnc(Nc3ccc(N4CCOCC4)cc3)n2)cc1` [MOMELOTINIB]: the Kd in assay [1] is > 30 µM (inactive); in [2] it was > 30 µM (inactive); in assay [4] it was > 30 µM (inactive); in [5] it was 0.474 µM (active); in assay [7] it was > 30 µM (inactive); in assay [8], > 30 µM (inactive). Moreover, in [10], the Kd is > 30 µM (inactive).
Turning to `CN(C)C/C=C/C(=O)Nc1cc2c(Nc3ccc(F)c(Cl)c3)ncnc2cc1O[C@H]1CCOC1` [AFATINIB], the Kd in [1], in [6], in [7] and in [8] was > 30 µM (inactive) each time.
Regarding `Cn1cnc2c(F)c(Nc3ccc(Br)cc3Cl)c(C(=O)NOCCO)cc21` [SELUMETINIB], the Kd in assay [1], in assay [7] and in assay [8] was > 30 µM (inactive) each time.
Consider `COc1cc2c(Oc3ccc4[nH]c(C)cc4c3F)ncnc2cc1OCCCN1CCCC1` [CEDIRANIB], for which the Kd in [1], in assay [7] and in [8] was > 30 µM (inactive) each time.
Consider `C[C@]1(O)C[C@@H](c2nc(-c3ccc4ccc(-c5ccccc5)nc4c3)c3c(N)nccn32)C1` [LINSITINIB], for which the Kd is > 30 µM (inactive) in assay [1]; > 30 µM (inactive) in assay [2]; > 30 µM (inactive) in assay [5]; > 30 µM (inactive) in assay [6]; > 30 µM (inactive) in assay [7]; 6.05 µM (active) in assay [8]. Also, the Kd in assay [9] and in assay [10] was > 30 µM (inactive) in each case.
As to `CN(c1ncccc1CNc1nc(Nc2ccc3c(c2)CC(=O)N3)ncc1C(F)(F)F)S(C)(=O)=O` [PF-00562271], the Kd in assay [1], in [2], in [5], in [6], in assay [7] and in assay [8] was > 30 µM (inactive) in each case. Also, the Kd in [9] and in [10] was > 30 µM (inactive) throughout.
`C[C@@]1(C(=O)Nc2ccc(F)nc2)CCCN1c1nc(Nc2cc(C3CC3)n[nH]2)c2cccn2n1` [BMS-754807]: the Kd in assay [1], in assay [6], in assay [7] and in [8] was > 30 µM (inactive) throughout.
